In the assay the target is T1, recombinant human Estrogen Receptor alpha ligand binding domain, residues 307-554 (ER alpha-LBD (GST)) (Homo sapiens, UniProt P03372).
T1 construct: made in house
T1 sequence (P03372 307-554): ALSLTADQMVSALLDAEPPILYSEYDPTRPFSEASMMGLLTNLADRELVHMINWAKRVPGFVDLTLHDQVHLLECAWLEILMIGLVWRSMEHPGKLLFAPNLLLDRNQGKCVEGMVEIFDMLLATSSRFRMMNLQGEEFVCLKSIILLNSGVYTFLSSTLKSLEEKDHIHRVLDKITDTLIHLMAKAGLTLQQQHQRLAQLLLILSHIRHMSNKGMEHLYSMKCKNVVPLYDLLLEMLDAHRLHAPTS
The experiment in a line: ERα binding assay (LanthaScreen TR-FRET competition). The conditions noted are these: TR-FRET competition with Fluormone ES2 tracer, 4 hours at room temperature; single experiment or average of two or more. For orientation: TR-FRET usually uses a lanthanide donor and a delayed reading to cut background.

A word on the IC50: it is the concentration that inhibits the measured activity by half.

With `Cc1ncsc1-c1ccc(CNC(=O)[C@@H]2C[C@@H](O)CN2C(=O)[C@@H](NC(=O)COCCCCC(=O)NCCOc2cc(F)c([C@@H]3c4[nH]c5ccccc5c4C[C@@H](C)N3CC(C)(C)F)c(F)c2)C(C)(C)C)cc1` [Example 142, (2S,4R)-1-((S)-2-(2-((5-((2-(3,5-Difluoro-4-((1R,3R)-2-(2-fluoro-2-methylpropyl)-3-methyl-2,3,4,9-tetrahydro-1H-pyrido[3,4-b]indol-1-yl)phenoxy)ethyl)amino)-5-oxopentyl)oxy)acetamido)-3,3-dimethylbutanoyl)-4-hydroxy-N-(4-(4-methylthiazol-5-yl)benzyl)pyrrolidine-2-carboxamide], the IC50 was determined as 1100 pM.
The value for `Cc1ncsc1-c1ccc(CNC(=O)[C@@H]2C[C@@H](O)CN2C(=O)[C@@H](NC(=O)COCCCCC(=O)N(C)CCOc2cc(F)c([C@@H]3c4[nH]c5ccccc5c4C[C@@H](C)N3CC(C)(C)F)c(F)c2)C(C)(C)C)cc1` [Example 143, (2S,4R)-1-((S)-2-(2-((5-((2-(3,5-Difluoro-4-((1R,3R)-2-(2-fluoro-2-methylpropyl)-3-methyl-2,3,4,9-tetrahydro-1H-pyrido[3,4-b]indol-1-yl)phenoxy)ethyl)(methyl)amino)-5-oxopentyl)oxy)acetamido)-3,3-dimethylbutanoyl)-4-hydroxy-N-(4-(4-methylthiazol-5-yl)benzyl)pyrrolidine-2-carboxamide] was 1100 pM; that for `Cc1ncsc1-c1ccc(CNC(=O)[C@@H]2C[C@@H](O)CN2C(=O)[C@@H](NC(=O)COCc2ccc(C(=O)Nc3cc(F)c([C@@H]4c5[nH]c6ccccc6c5C[C@@H](C)N4CC(C)(C)F)c(F)c3)nc2)C(C)(C)C)cc1` [Example 144, N-(3,5-Difluoro-4-((1R,3R)-2-(2-fluoro-2-methylpropyl)-3-methyl-2,3,4,9-tetrahydro-1H-pyrido[3,4-b]indol-1-yl)phenyl)-5-((2-(((S)-1-((2S,4R)-4-hydroxy-2-((4-(4-methylthiazol-5-yl)benzyl)carbamoyl)pyrrolidin-1-yl)-3,3-dimethyl-1-oxobutan-2-yl)amino)-2-oxoethoxy)methyl)picolinamide] was 1300 pM; that for `Cc1ncsc1-c1ccc(CNC(=O)[C@@H]2C[C@@H](O)CN2C(=O)[C@@H](NC(=O)CNCc2ccc(COc3cc(F)c([C@@H]4c5[nH]c6ccccc6c5C[C@@H](C)N4CC(C)(C)F)c(F)c3)nc2)C(C)(C)C)cc1` [Example 146] was 800 pM.
The value for `Cc1ncsc1-c1ccc(CNC(=O)[C@@H]2C[C@@H](O)CN2C(=O)[C@@H](NC(=O)CNCCCCCCCCOc2cc(F)c([C@@H]3c4[nH]c5ccccc5c4C[C@@H](C)N3CC(C)(C)F)c(F)c2)C(C)(C)C)cc1` [Example 147, (2S,4R)-1-((S)-2-(2-((8-(3,5-Difluoro-4-((1R,3R)-2-(2-fluoro-2-methylpropyl)-3-methyl-2,3,4,9-tetrahydro-1H-pyrido[3,4-b]indol-1-yl)phenoxy)octyl)amino)acetamido)-3,3-dimethylbutanoyl)-4-hydroxy-N-(4-(4-methylthiazol-5-yl)benzyl)pyrrolidine-2-carboxamide] was 1000 pM.
Turning to `Cc1ncsc1-c1ccc([C@H](C)NC(=O)[C@@H]2C[C@@H](O)CN2C(=O)[C@@H](NC(=O)COCCCOCCCOc2cc(F)c([C@@H]3c4[nH]c5ccccc5c4C[C@@H](C)N3CC(C)(C)F)c(F)c2)C(C)(C)C)cc1` [Example 152, (2S,4R)-1-((S)-2-(2-(3-(3-(3,5-Difluoro-4-((1R,3R)-2-(2-fluoro-2-methylpropyl)-3-methyl-2,3,4,9-tetrahydro-1H-pyrido[3,4-b]indol-1-yl)phenoxy)propoxy)propoxy)acetamido)-3,3-dimethylbutanoyl)-4-hydroxy-N—((S)-1-(4-(4-methylthiazol-5-yl)phenyl)ethyl)pyrrolidine-2-carboxamide], the IC50 turned out to be 500 pM.
The value for `Cc1ncsc1-c1ccc([C@H](C)NC(=O)[C@@H]2C[C@@H](O)CN2C(=O)[C@@H](NC(=O)COCCOCCCCOc2cc(F)c([C@@H]3c4[nH]c5ccccc5c4C[C@@H](C)N3CC(C)(C)F)c(F)c2)C(C)(C)C)cc1` [Example 153, (2S,4R)-1-((S)-2-(2-(2-(4-(3,5-Difluoro-4-((1R,3R)-2-(2-fluoro-2-methylpropyl)-3-methyl-2,3,4,9-tetrahydro-1H-pyrido[3,4-b]indol-1-yl)phenoxy)butoxy)ethoxy)acetamido)-3,3-dimethylbutanoyl)-4-hydroxy-N—((S)-1-(4-(4-methylthiazol-5-yl)phenyl)ethyl)pyrrolidine-2-carboxamide] was 300 pM; that for `Cc1ncsc1-c1ccc([C@H](C)NC(=O)[C@@H]2C[C@@H](O)CN2C(=O)[C@@H](NC(=O)COCCCCOCCCOc2cc(F)c([C@@H]3c4[nH]c5ccccc5c4C[C@@H](C)N3CC(C)(C)F)c(F)c2)C(C)(C)C)cc1` [Example 154, (2S,4R)-1-((S)-2-(2-(4-(3-(3,5-Difluoro-4-((1R,3R)-2-(2-fluoro-2-methylpropyl)-3-methyl-2,3,4,9-tetrahydro-1H-pyrido[3,4-b]indol-1-yl)phenoxy)propoxy)butoxy)acetamido)-3,3-dimethylbutanoyl)-4-hydroxy-N—((S)-1-(4-(4-methylthiazol-5-yl)phenyl)ethyl)pyrrolidine-2-carboxamide] was 400 pM.
The value for `Cc1ncsc1-c1ccc([C@H](C)NC(=O)[C@@H]2C[C@@H](O)CN2C(=O)[C@@H](NC(=O)COCCOCCCCCOc2cc(F)c([C@@H]3c4[nH]c5ccccc5c4C[C@@H](C)N3CC(C)(C)F)c(F)c2)C(C)(C)C)cc1` [Example 156, (2S,4R)-1-((S)-2-(2-(2-((5-(3,5-Difluoro-4-((1R,3R)-2-(2-fluoro-2-methylpropyl)-3-methyl-2,3,4,9-tetrahydro-1H-pyrido[3,4-b]indol-1-yl)phenoxy)pentyl)oxy)ethoxy)acetamido)-3,3-dimethylbutanoyl)-4-hydroxy-N—((S)-1-(4-(4-methylthiazol-5-yl)phenyl)ethyl)pyrrolidine-2-carboxamide] was 600 pM; that for `Cc1ncsc1-c1ccc([C@H](C)NC(=O)[C@@H]2C[C@@H](O)CN2C(=O)[C@@H](NC(=O)COCCCCCOCCOc2cc(F)c([C@@H]3c4[nH]c5ccccc5c4C[C@@H](C)N3CC(C)(C)F)c(F)c2)C(C)(C)C)cc1` [Example 157, (2S,4R)-1-((S)-2-(2-((5-(2-(3,5-Difluoro-4-((1R,3R)-2-(2-fluoro-2-methylpropyl)-3-methyl-2,3,4,9-tetrahydro-1H-pyrido[3,4-b]indol-1-yl)phenoxy)ethoxy)pentyl)oxy)acetamido)-3,3-dimethylbutanoyl)-4-hydroxy-N—((S)-1-(4-(4-methylthiazol-5-yl)phenyl)ethyl)pyrrolidine-2-carboxamide] was 800 pM.
As for `Cc1ncsc1-c1ccc(CNC(=O)[C@@H]2C[C@@H](O)CN2C(=O)[C@@H](NC(=O)COCCc2ccc(COc3cc(F)c([C@@H]4c5[nH]c6ccccc6c5C[C@@H](C)N4CC(C)(C)F)c(F)c3)nc2)C(C)(C)C)cc1` [Example 158, (2S,4R)-1-((S)-2-(2-(2-(6-((3,5-Difluoro-4-((1R,3R)-2-(2-fluoro-2-methylpropyl)-3-methyl-2,3,4,9-tetrahydro-1H-pyrido[3,4-b]indol-1-yl)phenoxy)methyl)pyridin-3-yl)ethoxy)acetamido)-3,3-dimethylbutanoyl)-4-hydroxy-N-(4-(4-methylthiazol-5-yl)benzyl)pyrrolidine-2-carboxamide], the IC50 was found to be 800 pM.
The value for `Cc1ncsc1-c1ccc([C@H](C)NC(=O)[C@@H]2C[C@@H](O)CN2C(=O)[C@@H](NC(=O)COCCc2ccc(COc3cc(F)c([C@@H]4c5[nH]c6ccccc6c5C[C@@H](C)N4CC(C)(C)F)c(F)c3)nc2)C(C)(C)C)cc1` [Example 159, (2S,4R)-1-((S)-2-(2-(2-(6-((3,5-Difluoro-4-((1R,3R)-2-(2-fluoro-2-methylpropyl)-3-methyl-2,3,4,9-tetrahydro-1H-pyrido[3,4-b]indol-1-yl)phenoxy)methyl)pyridin-3-yl)ethoxy)acetamido)-3,3-dimethylbutanoyl)-4-hydroxy-N—((S)-1-(4-(4-methylthiazol-5-yl)phenyl)ethyl)pyrrolidine-2-carboxamide] was 700 pM; that for `Cc1ncsc1-c1ccc(CNC(=O)[C@@H]2C[C@@H](O)CN2C(=O)[C@@H](NC(=O)CCCOc2ccc(COc3cc(F)c([C@@H]4c5[nH]c6ccccc6c5C[C@@H](C)N4CC(C)(C)F)c(F)c3)nc2)C(C)(C)C)cc1` [Example 161, (2S,4R)-1-((S)-2-(4-((6-((3,5-Difluoro-4-((1R,3R)-2-(2-fluoro-2-methylpropyl)-3-methyl-2,3,4,9-tetrahydro-1H-pyrido[3,4-b]indol-1-yl)phenoxy)methyl)pyridin-3-yl)oxy)butanamido)-3,3-dimethylbutanoyl)-4-hydroxy-N-(4-(4-methylthiazol-5-yl)benzyl)pyrrolidine-2-carboxamide] was 700 pM.
The value for `Cc1ncsc1-c1ccc(CNC(=O)[C@@H]2C[C@@H](O)CN2C(=O)[C@@H](NC(=O)CCCOc2cccc(COc3cc(F)c([C@@H]4c5[nH]c6ccccc6c5C[C@@H](C)N4CC(C)(C)F)c(F)c3)n2)C(C)(C)C)cc1` [Example 162, (2S,4R)-1-((S)-2-(4-((6-((3,5-Difluoro-4-((1R,3R)-2-(2-fluoro-2-methylpropyl)-3-methyl-2,3,4,9-tetrahydro-1H-pyrido[3,4-b]indol-1-yl)phenoxy)methyl)pyridin-2-yl)oxy)butanamido)-3,3-dimethylbutanoyl)-4-hydroxy-N-(4-(4-methylthiazol-5-yl)benzyl)pyrrolidine-2-carboxamide] was 1100 pM.
